From patent US20090054319A1, “Methods and Compositions for the Treatment of Hypertension and Gastrointestinal Disorders” (MICROBIA, INC., priority 2005, published 2009)
Bridges are numbered along the chain shown (N, C = ends). Where no end group is shown, it is not given here.

What was measured:
chymotrypsin [1] = target: T1, chymotrypsin (Bos taurus, UniProt P00766, DEL14-15/DEL147-148); assay: T84 cGMP assay to assess guanylin activity after a chymotrypsin digestion assay (guanylin degradation assay); assay type: biochemical, bovine; conditions: T84 cells, FIG. 1
T1 construct: purchased Sigma C6423
Procedure: Since guanylin is susceptible to digestion by chymotrypsin, chymotrypsin activity can be assayed based on guanylin cleavage. […] From this stock, six (6) 500 μl aliquots were prepared in 2 ml Eppendorf tubes and labeled “Control”, “T0”, “T15”, “T30”, “T60”, and “T180”, with “T_” representing timepoints, in minutes. 5 μl of a 10 mM chymostatin (Sigma, C7268) stock (5 mg of chymostatin resuspended in 824 μl of DMSO) was added to the “Control” samples and all samples were incubated for 5 minutes at 30° C. Chymostatin inhibits chymotrypsin activity and this sample served as a negative control. Next, 20 μl of a chymotrypsin (Sigma, C6423) enzyme solution (0.01 mg/ml bovine chymotrypsin enzyme in 1 mM HCl, 2 mM Calcium Chloride) were added to the samples and mixed by inversion. Samples are incubated at 30° C. […] Determination of sensitivity to digestion by chymotrypsin was determined by LCMS analysis and by in vitro activity in the T84 cGMP assays described below.
The ability of guanylin to activate the intestinal GC-C receptor was assessed in an assay employing the T84 human colon carcinoma cell line (American Type Culture Collection (Bethesda, Md.). For the assays cells were grown to confluency in 24-well culture plates with a 1:1 mixture of Ham's F12 medium and Dulbecco's modified Eagle's medium (DMEM), supplemented with 5% fetal calf serum and were used at between passages 54 and 60. […]

chymotrypsin [2] = conditions: cited from earlier work
[3] = tested on: intestinal fluid secretion; conditions: suckling mouse model; Santos-Neto et al 2003 Pharm & Toxicol 92:114; cited from earlier work

CC(C)C[C@H](NC(=O)[C@@H](NC(=O)N[C@@H](Cc1ccccc1)C(=O)O)C1CCNC(=N)N1)C(=O)N[C@H](C=O)Cc1ccccc1 (stereo partly drawn) [chymostatin, N—(Na-Carbonyl-[S,S]-a-(2-Iminohexahydro-4-pyrimidyl)glycine)-X-Phe-al)-Phe where X is Leu, Val or Ile]
guanylin stimulated cGMP activity when chymotrypsin inhibitor present (chymotrypsin [1]; chymostatin present during chymotrypsin digestion of guanylin): retained
chymotrypsin-mediated inactivation of guanylin (chymotrypsin [2]): can be prevented
guanylin-induced intestinal fluid secretion [3]: required in order to observe guanylin-induced intestinal fluid secretion

bovine chymotrypsin enzyme (Sigma, C6423)
guanylin degradation assay: loss of guanylin-stimulated cGMP activity and LC/MS of guanylin processing (Guanylin (Sigma, G-116)): guanylin stimulated cGMP activity decreases over time in the presence of chymotrypsin

guanylin: intestinal peptide that stimulates chloride secretion; mature protein has 15 amino acids; agonist of the GC-C receptor (PGTCEICAYAACTGC; disulfide 4-12, 7-15; UniProt Q02747 101-115, looked up)
guanylin stimulated cGMP activity (chymotrypsin [1]; in the presence of chymotrypsin, timepoints 0-180 min at 30° C.): decreases over time
cleavage of guanylin by chymotrypsin (chymotrypsin [2]; Greenberg et al. J Investig Med 45:276-82, 1997): chymotrypsin can cleave guanylin
